Tests used:
NFATC2 dephosphorylation = assay: NFAT mobility shifting assay in Jurkat T cells; format: cell-based; details: HA-mCherry-tagged peptides, PMA and ionomycin 2 h, n = 7
Procedure: Jurkat T cells expressing GST-tagged peptides were treated with PMA and ionomycin for activation. […] For dephosphorylation of NFATC2, Jurkat T cells were treated with PMA and ionomycin for 2 h. c Hyper- and hypophosphorylated NFATC2 of b was measured using ImageJ, and the hypo/hyper ratio was calculated (n = 7). d Snapshot images of the activated Jurkat T cells expressing the indicated peptides and tNFATC2 were obtained using confocal microscopy. The expression and localization of peptides and tNFATC2 are shown as mCherry (red) and EGFP (green), respectively. Nuclei were stained with Hoechst (blue). Scale bar, 50 μm e Nuclear-localized tNFATC2 was measured by calculating the colocalization ratio between Hoechst (M1) and EGFP (M2). […] Statistical differences were determined using a two-tailed Student’s t-test (a, c) or one-way ANOVA (e). ***p < 0.001, NC negative control.

[1] = tested on: Jurkat T cells (PMA and ionomycin-induced gene expression); assay: mRNA sequencing of activated Jurkat T cells; format: cell-based, human
Procedure: We then extracted RNA from these cells. Construction of the cDNA library and next-generation sequencing was performed at LAS (Gimpo, Korea). We sequenced all samples on an Illumina NextSeq 500 system with 75 paired-end reads. For the RNA sequencing analysis, reads for each sample were aligned to the human genome (GRCh37/hg19 genome assembly) using STAR 2.4.0.1[25] with default settings. We used HOMER tools to quantify and normalize the defined genes in RefSeq transcripts. FPKM normalized genes were hierarchically clustered using Cluster3.0[26]. We visualized refined data with Java Treeview (http://jtreeview.sourceforge.net). We conducted gene ontology analysis of each cluster using the DAVID web tool (https://david.ncifcrf.gov). Finally, we visualized the expression levels of target genes using the Integrative Genomics Viewer (http://software.broadinstitute.org/software/igv). The raw data were submitted to the NCBI Gene Expression Omnibus under accession number GSE185561.
Fig. 3 The CABIN1 peptide inhibits T-cell activation. a Heatmap of altered genes affected by FK506 treatment or CABIN1 peptide expression upon T-cell activation. b Gene Ontology analysis of cluster III. c mRNA expression levels of genes included in cluster III. d qRT-PCR data of genes in c. The experiment was independently repeated at least three times, and the data are presented as the mean ± standard deviation. Statistical differences were determined using two-tailed Student’s t-test. *p < 0.05, **p < 0.01, ***p < 0.001, NC negative control.

In the case of `C=CC[C@@H]1/C=C(\C)C[C@H](C)C[C@H](OC)[C@H]2O[C@@](O)(C(=O)C(=O)N3CCCC[C@H]3C(=O)O[C@H](/C(C)=C/[C@@H]3CC[C@@H](O)[C@H](OC)C3)[C@H](C)[C@@H](O)CC1=O)[C@H](C)C[C@@H]2OC` [FK506, reference compound], the “NFATC2 dephosphorylation / band shift” value (NFATC2 dephosphorylation) is reported as “inhibited the NFATC2 band shift”, the “CD27 and CD70 expression” value ([1]; Jurkat, PMA and ionomycin 8 h) is reported as “repressed” and the “RNA levels of T-cell activation markers (IL2, IL3, NFATC1, CCL4, CCL20, CXCL8)” value ([1]; Jurkat, PMA and ionomycin 8 h) is reported as “reduced the RNA levels”. It also gave a TM4SF1 expression ([1]; P+I 8 h, NC 0, NC_P+I 3.268) of 0.439 FPKM, a CD200 expression ([1]; P+I 8 h, NC 0, NC_P+I 3.759) of 0 FPKM and a ZP4 expression ([1]; P+I 8 h, NC 0, NC_P+I 6.38) of 0.462 FPKM. For the same compound, the CCL3L1 expression ([1]; P+I 8 h, NC 0, NC_P+I 6.448) was 0 FPKM, the CCL3L3 expression ([1]; P+I 8 h, NC 0, NC_P+I 6.524) was 0 FPKM and the CCL1 expression ([1]; P+I 8 h, NC 0, NC_P+I 9.86) was 0 FPKM. For the same compound, the NR4A2 expression ([1]; P+I 8 h, NC 0, NC_P+I 10.173) was 0.04 FPKM, the CCL4L2 expression ([1]; P+I 8 h, NC 0, NC_P+I 12.758) was 0.087 FPKM and the CCL4L1 expression ([1]; P+I 8 h, NC 0, NC_P+I 13.27) was 0.087 FPKM. The CSF2 expression ([1]; P+I 8 h, NC 0, NC_P+I 23.497) was 0 FPKM, the XCL1 expression ([1]; P+I 8 h, NC 0, NC_P+I 49.113) was 0 FPKM and the CCL3 expression ([1]; P+I 8 h, NC 0, NC_P+I 52.239) was 0 FPKM. The CCL20 expression ([1]; P+I 8 h, NC 0, NC_P+I 59.393) was 0 FPKM, the IL3 expression ([1]; P+I 8 h, NC 0, NC_P+I 229.054) was 0.062 FPKM and the CCL4 expression ([1]; P+I 8 h, NC 0, NC_P+I 247.287) was 0 FPKM. For the same compound, the IL2 expression ([1]; P+I 8 h, NC 0, NC_P+I 397.807) was 0.287 FPKM, the C3 expression ([1]; P+I 8 h, NC 0.006, NC_P+I 3.907) was 0.489 FPKM and the TNS3 expression ([1]; P+I 8 h, NC 0.008, NC_P+I 13.196) was 0.678 FPKM. The PLS3 expression ([1]; P+I 8 h, NC 0.019, NC_P+I 4.717) was 0.052 FPKM, the CREB5 expression ([1]; P+I 8 h, NC 0.031, NC_P+I 4.533) was 0.577 FPKM and the IRF4 expression ([1]; P+I 8 h, NC 0.034, NC_P+I 8.439) was 0.423 FPKM. It also gave a CXCL8 expression ([1]; P+I 8 h, NC 0.037, NC_P+I 26.755) of 0.937 FPKM, an SLAMF1 expression ([1]; P+I 8 h, NC 0.042, NC_P+I 5.663) of 0.217 FPKM and a TNFSF14 expression ([1]; P+I 8 h, NC 0.045, NC_P+I 69.958) of 1.023 FPKM. The IL21R-AS1 expression ([1]; P+I 8 h, NC 0.048, NC_P+I 23.616) was 1.927 FPKM, the XCL2 expression ([1]; P+I 8 h, NC 0.056, NC_P+I 70.747) was 0 FPKM and the LIF expression ([1]; P+I 8 h, NC 0.063, NC_P+I 3.697) was 0.143 FPKM. The SHC4 expression ([1]; P+I 8 h, NC 0.069, NC_P+I 4.391) was 0.663 FPKM, the RGS16 expression ([1]; P+I 8 h, NC 0.077, NC_P+I 29.102) was 1.172 FPKM and the IL21R expression ([1]; P+I 8 h, NC 0.1, NC_P+I 34.712) was 2.244 FPKM. It also gave a CRTAM expression ([1]; P+I 8 h, NC 0.104, NC_P+I 100.175) of 3.325 FPKM, a ZNF704 expression ([1]; P+I 8 h, NC 0.107, NC_P+I 4.985) of 0.014 FPKM and an NTRK1 expression ([1]; P+I 8 h, NC 0.167, NC_P+I 7.941) of 0.836 FPKM. It also gave a PHEX expression ([1]; P+I 8 h, NC 0.188, NC_P+I 17.377) of 0.213 FPKM, an SORBS1 expression ([1]; P+I 8 h, NC 0.196, NC_P+I 5.08) of 0.4 FPKM and a TIAM2 expression ([1]; P+I 8 h, NC 0.255, NC_P+I 4.095) of 0.27 FPKM. It also gave a CRIM1 expression ([1]; P+I 8 h, NC 0.268, NC_P+I 3.029) of 0.305 FPKM, an SERPINB2 expression ([1]; P+I 8 h, NC 0.28, NC_P+I 85.882) of 2.905 FPKM and a CCND2 expression ([1]; P+I 8 h, NC 0.321, NC_P+I 6.436) of 0.558 FPKM. For the same compound, the CXCR3 expression ([1]; P+I 8 h, NC 0.604, NC_P+I 14.322) was 0.503 FPKM, the ISM1 expression ([1]; P+I 8 h, NC 0.798, NC_P+I 56.893) was 0.726 FPKM and the C10orf54 expression ([1]; P+I 8 h, NC 0.84, NC_P+I 7.506) was 0.382 FPKM. For the same compound, the CSF1 expression ([1]; P+I 8 h, NC 0.848, NC_P+I 13.43) was 1.706 FPKM, the SLC35E4 expression ([1]; P+I 8 h, NC 0.887, NC_P+I 9.069) was 0.952 FPKM and the ZNF827 expression ([1]; P+I 8 h, NC 0.975, NC_P+I 3.401) was 1.521 FPKM. It also gave a CD70 expression ([1]; P+I 8 h, NC 1.101, NC_P+I 61.146) of 3.005 FPKM, a PAM expression ([1]; P+I 8 h, NC 1.154, NC_P+I 5.577) of 1.483 FPKM and an FOXO1 expression ([1]; P+I 8 h, NC 1.167, NC_P+I 8.247) of 1.77 FPKM. For the same compound, the IRF8 expression ([1]; P+I 8 h, NC 1.168, NC_P+I 14.813) was 1.19 FPKM, the SCHIP1 expression ([1]; P+I 8 h, NC 1.25, NC_P+I 3.933) was 1.535 FPKM and the FOSL2 expression ([1]; P+I 8 h, NC 1.294, NC_P+I 7.508) was 2.204 FPKM. It also gave a TNFSF9 expression ([1]; P+I 8 h, NC 1.393, NC_P+I 7.107) of 2.568 FPKM, an IQCJ-SCHIP1 expression ([1]; P+I 8 h, NC 1.402, NC_P+I 4.253) of 1.657 FPKM and an STAT5A expression ([1]; P+I 8 h, NC 1.417, NC_P+I 9.105) of 3.347 FPKM. It also gave a TDRD9 expression ([1]; P+I 8 h, NC 1.428, NC_P+I 25.902) of 1.245 FPKM.
